{"source": "patent US5714496A", "about": "“Quinuclidine derivatives as squalene synthase inhibitors” (Zeneca Limited, priority 1992, dated 1998)", "key": {"[1]": {"tested_on": "de novo hepatic cholesterol synthesis from 14C-acetate", "experiment": "Acute rat cholesterol synthesis assay", "format": "in vivo", "conditions": "plasma cholesterol specific radioactivity after ip [2-14C]-acetate given 1 hour after the compound", "method": "(b) Acute rat cholesterol synthesis assay.\nThis is an acute in vivo test in the rat to measure de novo hepatic cholesterol synthesis from exogenously administered ^14 C-acetate.\nFemale rats (35-55 g) are housed in reverse lighting conditions (red light from 0200 h-1400 h) for a period of about 2 weeks prior to test. Animals are allowed free access to chow and drinking water throughout this period. At test, animals should weigh 125-150 g.\nTest compounds may be administered by oral gavage, dissolved or suspended in 0.5% polysorbate, or by ip or iv dosing. Control animals receive vehicle alone. After 1 hour the rats are injected ip with 25 μCi [2-^14 C]-acetate (NEN DUPONT, specific activity, 45-60 mCi/mmol NEC-085H, or AMERSHAM specific activity, 50-60 mCi/mmol CFA 14) in a volume of 0.25 ml saline (100 μCi/ml). After a further hour, rats are terminally anaesthetised with halothane and a blood sample obtained from the abdominal vena cava.\n1 ml of plasma is lyophilised and then saponified in 2 ml ethanolic KOH (1 part 33% KOH, 9 parts ethanol) at 75° C. for 2 hours. After addition of an equal quantity of water, non-saponifiable lipids are extracted with two 5 ml volumes of hexane. The hexane extracts are evaporated to dryness and the residues dissolved in ethanol to determine cholesterol specific radioactivity. ED50 values can be determined in the standard way."}, "[2]": {"tested_on": "squalene synthase (rat liver microsomal protein)", "experiment": "Inhibition of squalene synthase (squalene formation from tritiated farnesyl pyrophosphate)", "format": "biochemical", "conditions": "at 2.5 μM; rat liver microsomes, 20 μM [3H]-farnesyl pyrophosphate, 15 min, 37° C.", "method": "(a) Inhibition of Squalene synthase\nIn this test, the ability of a compound to prevent the formation of squalene from a radioactive substrate (tritiated farnesyl pyrophosphate) is assessed.\nThe test compound is incubated at a concentration of 25 micromolar in 200 μl of a buffered solution containing potassium phosphate (50 mM), MgCl2 (4.95 mM), KF (9.9 mM), NADPH (0.9 mM) and rat liver microsomal protein (20 μg). Rat liver microsomes are prepared by the method described in published European Patent Application No. 324,421 and stored in liquid nitrogen prior to assay. Assay vials are kept at 37° C. throughout the incubation.\nThe reaction is started with the addition of the substrate (1-[^3 H]-farnesyl pyrophosphate), final concentration 20 μM, and stopped after 15 minutes reaction time with the addition of 50 μl of 4% KOH. The reaction products are separated from unreacted substrate after application to a C-18 octadecyl 1 ccBond column (Analytichem Int product No. 617101). An aqueous fraction is eluted with 250 μl of 0.1M KOH. Squalene is then eluted with 1.0 ml 10% ethylacetate in hexane and radioactivity determined. The difference in radioactivity in the presence and absence of the test compound is used to determine the level of inhibition. […] The IC50 can then be determined from a plot of percentage inhibition against concentration of test compound."}}, "data": [{"smiles": "OC1(C#Cc2ccc(-c3ccccn3)cc2)CN2CCC1CC2", "note": "(centres unmarked) [Example 2, 3-[2-(4-[2-pyridyl]phenyl)ethynyl]-3-hydroxyquinuclidine]", "values": [{"measurement": "ED50", "setting": "[1]", "value": 8, "unit": "mg/kg"}, {"measurement": "inhibition of squalene synthase", "setting": "[2]", "value": "about 98%"}]}]}
